Measured values taken from PubChem BioAssay AID488798 (The Scripps Research Institute Molecular Screening Center, 2010).
Activity calls are given as the source filed them. The rule behind the calls is not given here.

Each compound was assayed against Protein Rev (Human immunodeficiency virus type 1 group M subtype B (isolate HXB2)) (UniProt P04618) (assay: inhibitors of HIV-1 Rev binding to RRE RNA, late-stage follow-up, counter-screen for gld-1 inhibitor project, biochemical, FRET, dose response (AID 488798)).
Chain of Protein Rev (Human immunodeficiency virus type 1 group M subtype B (isolate HXB2)) (P04618 whole entry, looked up): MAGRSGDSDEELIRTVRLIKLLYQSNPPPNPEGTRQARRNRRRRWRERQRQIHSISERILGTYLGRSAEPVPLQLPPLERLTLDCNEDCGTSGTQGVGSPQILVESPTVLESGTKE
With `O=c1[nH]c2cc3ccccc3cc2nc1C(F)(F)F` the IC50 was “inactive”. `Nc1ccc(O)c2c1C(=O)c1ccccc1C2=O` was tested, and the IC50 was > 75.4 µM (inactive). With `O=C(CN1C(=O)NC2(CCCCC2)C1=O)Oc1ccc2c(C(F)(F)F)cc(=O)oc2c1` the IC50 was > 75.4 µM (inactive). In the case of `CC1=CC(=O)c2c(O)ccc(O)c2C1=O`, the IC50 is reported as > 75.4 µM (inactive). In the case of `CCN(CC)S(=O)(=O)c1ccc(N2CCCC2)c(NS(=O)(=O)c2ccc(F)cc2)c1`, the IC50 is reported as > 75.4 µM (inactive). In the case of `CCCCn1c(=O)[nH]c2nc3cc(NC(C)=O)ccc3nc2c1=O`, the IC50 is reported as “inactive”. `O=C1C2=C(SCCS2)C(=O)N1CCCO` was tested, and the IC50 was > 75.4 µM (inactive). In the case of `Cc1ccc(S(=O)(=O)Nc2cc3c(C(=O)Nc4ccccc4)c(C)oc3c3ccccc23)cc1`, the IC50 is reported as “inactive”. In the case of `O=c1[nH]c(=O)c2nc3ccccc3nc2[nH]1`, the IC50 is reported as > 75.4 µM (inactive). `Cc1ccc(S(=O)(=O)Nc2cc3c(C(=O)Nc4ccccc4)c(C)oc3c3ccccc23)c(C)c1` was tested, and the IC50 was > 75.4 µM (inactive). `Nc1ccc2nonc2c1[N+](=O)[O-]` was tested, and the IC50 was > 75.4 µM (inactive). In the case of `Nc1c(O)ccc2c1C(=O)c1ccccc1C2=O`, the IC50 is reported as > 75.4 µM (inactive). With `COc1ccc(C=Nc2c(-c3ccco3)nc3ccccn23)cc1OC` the IC50 was > 75.4 µM (inactive). `COc1ccc(/C=C(\CC(=O)O)c2nc3ccccc3s2)cc1O` was tested, and the IC50 was > 75.4 µM (inactive). With `CCOC(=O)c1c(C)oc2c1cc(NS(=O)(=O)c1ccc(C)cc1)c1ccccc12` the IC50 was > 75.4 µM (inactive).
